“Also recorded” adds a separate entry of the source.
How the values were obtained:
[1] = test system: patients with presumed NASH; test: Example 6 study: transaminases and safety laboratory values; type: in vivo, human
Method: This study was a double-blind, multi-center, placebo-controlled, randomized 3-arm phase 2a study (NCT03823703) conducted to assess the safety and efficacy of miricorilant in reducing liver fat content (LFC) in patients with presumed NASH. Adult patients (18-75 years) with presumed NASH were randomized 1:1:1 to miricorilant 600 mg daily, miricorilant 900 mg daily, or placebo for 12 weeks. […] Abbreviations used in this Example and in the Figures include: ALP, alkaline phosphatase; ALT, alanine aminotransferase; AST, aspartate aminotransferase; ELF, enhanced liver fibrosis; LFC, liver fat content; NASH, non-alcoholic steatohepatitis; ULN, upper limit of normal; AUC, area under the concentration-time curve; Cmax, maximum concentration; EOT, end of treatment; GGT, gamma-glutamyltransferase; INR, international normalized ratio; MRI-PDFF, magnetic resonance imaging-proton density fat fraction; pt, patient; SD, standard deviation; ULN, upper limit of normal; Wk, week.
Key inclusion criteria included that the patients be adults between 18-75 years old; be presumed to suffer from NASH with fibrosis; have LFC as measured by MRI-PDFF≥8%; have levels of AST<5×ULN and ALT<5×ULN; and have eGFR>60 mL/min/1.73 m^2. Primary endpoints included relative change in LFC from baseline by MRI-PDFF. Secondary endpoints included change from baseline in AST, ALT, GGT, and change from baseline in ELF score.
Patients were divided into different cohorts and received different regimens of miricorilant. The cohorts included patients receiving 30 mg mircorilant once per day; patients receiving 50 mg mircorilant once per day; patients receiving 100 mg mircorilant once per day; patients receiving 150 mg mircorilant once per day; patients receiving 100 mg mircorilant on Mondays, Wednesdays, and Fridays; patients receiving 100 mg mircorilant on Mondays and Fridays; and patients receiving 200 mg mircorilant once per week. Patients receiving 100 mg mircorilant on Mondays and Fridays were termed “Cohort 6”.
FIG. 13 provides a plot of MRI-PDFF (top line beginning at week 0) and liver enzyme alanine aminotransferase (ALT; bottom line beginning at week 0) for a patient who received miricorilant treatment that included a cessation of miricorilant treatment from week 7 to week 10. […] GGT was elevated at baseline (peak 88 U/L at Wk 10); at other weeks it was below baseline. Eosinophils (%) baseline 7.3, decreased to 2.2 at Wk 2 and increased Wk 3 (peak 4.3), decreased Wk 8 (2.0) and stable until EOT.

[2] = test system: patients presumed to have NASH; test: Phase 2a study: liver enzymes (ALT, AST), bilirubin, Hy's Law (eDISH plot); type: in vivo, human
Description: A Phase 2a, randomized, double-blind, placebo-controlled study (ClinicalTrials.gov Identifier: NCT03823703) was begun to assess the efficacy of two dose levels of miricorilant versus placebo in reducing liver fat in patients who were presumed to have non-alcoholic steatohepatitis (NASH), that presumption based on blood tests and noninvasive measures. Written informed consent was obtained before initiating any study-mandated procedures. The full study was planned to enroll approximately 120 patients, randomized 1:1:1 to receive daily 900 mg miricorilant:600 mg miricorilant: matching placebo.
Other endpoints monitoring and assessment for safety for all study participants. Safety endpoints included the incidence of TEAEs, AEs, and SAEs; changes from Baseline in clinical laboratory tests (hematology and chemistry panels); changes from Baseline in physical examinations and vital sign measurements; changes from Baseline in ECG parameters.
Liver enzyme levels were measured in the patients.
Bilirubin and liver enzyme levels were measured in the patients at baseline. […] Bilirubin and ALT levels that combined are placed in the upper right quadrant of the graph, labelled “Hy's Law Quadrant”, indicate that the patient is at high risk of severe hepatocellular injury. The cholestasis quadrant is the location on the graph where bilirubin levels are greater than twice the ULN for bilirubin. The “Temple's Corollary” quadrant is the location on the graph where peak ALT levels are greater than 3 times the ULN for ALT, but bilirubin levels are less than twice the ULN for bilirubin.

## O=c1[nH]c(=O)c(Cc2cccc(C(F)(F)F)c2)c([C@H]2CC[C@H](c3ccccc3)CC2)[nH]1 [miricorilant, (E)-6-(4-Phenylcyclohexyl)-5-(3-trifluoromethylbenzyl)-1H-pyrimidine-2,4-dione]
[1]; 100 mg twice weekly, over 12 weeks
  Hepatic transaminase levels: without an associated rise
[1]; including 100 mg twice weekly
  Safety and tolerability: safe, well tolerated
[1]; one patient (FIG. 13), Wk 2, baseline 7.3
  Eosinophils (%): 2.2%
[1]; one patient (FIG. 13), Wk 3
  Eosinophils (%) peak: 4.3%
[1]; one patient (FIG. 13), Wk 8, stable until EOT
  Eosinophils (%): 2.0%
[1]; one patient (FIG. 13), Wk 10, elevated at baseline
  GGT peak: 88 U/L
[1]; one patient, treatment ceased from week 7 to week 10 (FIG. 13)
  Total bilirubin, direct bilirubin, ALP, INR: within normal limits
[1]; responders receiving intermittent miricorilant, all cohorts
  Rise in ALT>3×ULN, intermittent compared to daily dosing: less likely to have a rise in ALT>3×ULN
[1]; treatment non-responders (FIG. 10)
  Transaminase levels: did not experience a rise
[2]; 600 or 900 mg daily
  Change in ALP or bilirubin levels: No significant change
[2]; 600 or 900 mg daily, eDISH plot FIG. 5
  Hy's Law criteria (total bilirubin >2x ULN and ALT or AST >3x ULN): No patient in this study satisfied the criteria for Hy's Law; also recorded: no patient met Hy's Law criteria
[2]; all patients
  Transaminase elevations upon discontinuation of miricorilant: resolved rapidly
[2]; patient 208-4020, 900 mg, 30 days on treatment, baseline 45
  AST Max: 772 U/L
[2]; patient 208-4020, 900 mg, 30 days on treatment, baseline 69
  ALT Max: 1378 U/L
[2]; patient 211-4002, 900 mg, 31 days on treatment, baseline 32
  AST Max: 113 U/L
[2]; patient 211-4002, 900 mg, 31 days on treatment, baseline 50
  ALT Max: 386 U/L
[2]; patient 214-4007, 900 mg, 44 days on treatment, baseline 30
  AST Max: 376 U/L
[2]; patient 214-4007, 900 mg, 44 days on treatment, baseline 38
  ALT Max: 848 U/L
[2]; patient 233-4018, 600 mg, 34 days on treatment, baseline 26
  AST Max: 391 U/L
[2]; patient 233-4018, 600 mg, 34 days on treatment, baseline 41
  ALT Max: 955 U/L
[2]; patients with presumed NASH, 600 or 900 mg daily for 30-44 days
  Effect on liver enzymes ALT and AST: isolated rise; also recorded: increase

— patent publication US12616698B2, “Methods for reducing liver fat and for treating fatty liver disorders” (Corcept Therapeutics Incorporated, priority 2021, dated 2026)
